Where two headings read alike, the source gives them in different places. Blank lines part the entries; values can stand above or below the molecule they belong to. *1 amine or outer side, *2 acyl side, *3 side chain or, on linkers, in order; H or OH if unused. Where a SMILES comes first, the peptide text is derived from it. Bridges are numbered along the chain shown (N, C = ends). Where no end group is shown, it is not given here. [ ]: non-standard residue; d: D form. Phe(Nα-CH2CH2CO) = O=C([C@H](Cc1ccccc1)N(CCC(=O)[*:3])[*:1])[*:2]; N(2-aminoethyl)Phe = O=C([C@H](Cc1ccccc1)N(CCN[*:3])[*:1])[*:2]; N(2-mercaptoethyl)Gly = O=C(CN(CCS[*:3])[*:1])[*:2]; N(CH2CH2CO)Gly = O=C(CN(CCC(=O)[*:3])[*:1])[*:2]; 2Nal = N[C@@H](Cc1ccc2ccccc2c1)C(=O)O; d2Nal = N[C@H](Cc1ccc2ccccc2c1)C(=O)O; Phe(C1) = not defined here; Phe(C2) = not defined here; Phe(C3) = not defined here
Tests used:
SSTR-2 = molecular target: T1, SSTR-2 (Homo sapiens, UniProt P30874); assay: Inhibition of 125I-Tyr11-SRIF binding to membrane preparations expressing SSTR-2
T1 construct: expressed in transfected cells
T1 sequence (P30874 whole entry): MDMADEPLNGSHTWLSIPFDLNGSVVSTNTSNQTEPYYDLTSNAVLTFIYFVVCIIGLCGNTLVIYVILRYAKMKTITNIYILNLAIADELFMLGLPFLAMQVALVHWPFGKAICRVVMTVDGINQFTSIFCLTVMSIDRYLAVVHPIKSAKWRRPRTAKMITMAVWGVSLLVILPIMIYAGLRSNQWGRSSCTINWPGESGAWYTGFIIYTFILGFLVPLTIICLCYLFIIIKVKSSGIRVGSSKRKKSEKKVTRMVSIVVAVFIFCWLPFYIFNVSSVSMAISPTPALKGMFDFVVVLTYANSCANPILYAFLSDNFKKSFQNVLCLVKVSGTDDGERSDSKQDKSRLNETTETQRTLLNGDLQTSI
Description: (§1) The receptor preparations used for these tests were either from the cloned human receptors selectively and stably expressed in Chinese Hamster Ovary (CHO) cells or from cell lines naturally expressing the SSTRs. […] The binding reactions were filtered, the filters were washed and the bound radioactivity was counted in gamma counter. Non specific binding was defined as the radioactivity remaining bound in the presence of 1 μM unlabeled SRIF-14.
(§2) In order to validate positive signals of the binding tests, and to eliminate non-specific signals, samples of irrelevant peptides, such as GnRH, that were synthesized and handled using the same procedures, were tested in the same assays as negative control samples. These samples had no binding activity in any of the assays. Results are shown below in Tables 5 and 6 and FIG. 1.

SSTR-3 = molecular target: T2, SSTR-3 (Homo sapiens, UniProt P32745); assay: Inhibition of 125I-Tyr11-SRIF binding to membrane preparations expressing SSTR-3; conditions: for IC50: Table 15, read-out: IC50 (nM) for SST-R 3
T2 construct: expressed in transfected cells
T2 sequence (P32745 whole entry): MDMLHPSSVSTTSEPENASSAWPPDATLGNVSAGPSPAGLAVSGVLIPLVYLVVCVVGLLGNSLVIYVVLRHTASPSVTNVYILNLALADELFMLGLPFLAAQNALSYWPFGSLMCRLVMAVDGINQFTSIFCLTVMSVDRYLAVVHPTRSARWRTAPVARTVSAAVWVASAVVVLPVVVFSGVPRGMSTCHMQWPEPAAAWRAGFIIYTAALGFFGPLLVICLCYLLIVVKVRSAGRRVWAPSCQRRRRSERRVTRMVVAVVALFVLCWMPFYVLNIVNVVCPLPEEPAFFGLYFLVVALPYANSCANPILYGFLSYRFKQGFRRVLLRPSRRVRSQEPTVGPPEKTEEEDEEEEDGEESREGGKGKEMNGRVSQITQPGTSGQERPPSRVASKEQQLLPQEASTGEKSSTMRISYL
Description: as §1, with “The somatostatin analogs were tested for their potency in inhibition of the binding of ^125I-Tyr^11-SRIF (based on the method described by Raynor et. al., Molecular Pharmacology, 1993, 43, 838-844) to membrane preparations expressing the transmembranal somatostatin receptors (SSTR-1, 2, 3, 4 or 5). The receptor” for “The receptor”
as §2

SSTR-5 = molecular target: T3, SSTR-5 (Homo sapiens, UniProt P35346); assay: Inhibition of 125I-Tyr11-SRIF binding to membrane preparations expressing SSTR-5; conditions: for IC50: Table 15, read-out: IC50 (nM) for SST-R 5
T3 construct: expressed in transfected cells
T3 sequence (P35346 whole entry): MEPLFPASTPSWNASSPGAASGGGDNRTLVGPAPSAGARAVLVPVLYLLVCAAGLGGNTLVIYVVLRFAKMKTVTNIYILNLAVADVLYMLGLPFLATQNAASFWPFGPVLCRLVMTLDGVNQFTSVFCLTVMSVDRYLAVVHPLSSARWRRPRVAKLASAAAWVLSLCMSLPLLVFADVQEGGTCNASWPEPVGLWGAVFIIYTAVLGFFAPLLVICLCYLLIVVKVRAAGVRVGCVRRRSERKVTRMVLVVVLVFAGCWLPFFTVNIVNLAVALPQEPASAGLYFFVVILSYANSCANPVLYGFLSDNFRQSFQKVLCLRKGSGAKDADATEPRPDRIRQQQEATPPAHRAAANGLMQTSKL
Description: as §1, §2

in vitro = conditions: kidney or brush border membranes
Description: The assay was based on HPLC determination of peptide degradation as a function of time in renal homogenate at 37° C.

[1] = system: somatostatin receptors (SSTR-1, 2, 3, 4 or 5); assay: Somatostatin receptor subtype selectivity of binding; set-up: species or system human; conditions: in words
Description: The somatostatin analogs were tested for their potency in inhibition of the binding of ^125I-Tyr^11-SRIF (based on the method described by Raynor et. al., Molecular Pharmacology, 1993, 43, 838-844) to membrane preparations expressing the transmembranal somatostatin receptors (SSTR-1, 2, 3, 4 or 5). The receptor preparations used for these tests were either from the cloned human receptors selectively and stably expressed in Chinese Hamster Ovary (CHO) cells or from cell lines naturally expressing the SSTRs. Typically, cell membranes were homogenated in Tris buffer in the presence of protease inhibitors and incubated for 30-40 minutes with ^125I-Tyr^11-SRIF with different concentrations of the tested sample. The binding reactions were filtered, the filters were washed and the bound radioactivity was counted in gamma counter. Non specific binding was defined as the radioactivity remaining bound in the presence of 1 μM unlabeled SRIF-14.
as §2

[2] = cited from earlier work
[3] = molecular target: T4, cloned human somatostatin receptor 3 (human, UniProt P32745 1-418); assay: inhibition of SRIF binding, cloned human SSTR-3; head says nM, values evidently molar
T4 construct: whole, on cells; Tested as cell membrane preparations; also called SSTR-3; SSTR3
T4 sequence (P32745 whole entry): as the sequence (P32745 whole entry) above
From the text: as §1, with “counter.” for “counter. Non specific binding was defined as the radioactivity remaining bound in the presence of 1 μM unlabeled SRIF-14.”

[4] = molecular target: T5, cloned human somatostatin receptor 2 (human, UniProt P30874 1-369); assay: inhibition of SRIF binding, cloned human SSTR-2; head says nM, values evidently molar
T5 construct: whole, on cells; Tested as cell membrane preparations; also called SSTR-2; SSTR2
T5 sequence (P30874 whole entry): as the sequence (P30874 whole entry) above
From the text: as §1, with “counter.” for “counter. Non specific binding was defined as the radioactivity remaining bound in the presence of 1 μM unlabeled SRIF-14.”

[5] = molecular target: T6, cloned human somatostatin receptor 5 (human, UniProt P35346 1-364); assay: inhibition of SRIF binding, cloned human SSTR-5; head says nM, values evidently molar
T6 construct: whole, on cells; Tested as cell membrane preparations; also called SSTR-5; SSTR5
T6 sequence (P35346 whole entry): as the sequence (P35346 whole entry) above
From the text: as §1, with “counter.” for “counter. Non specific binding was defined as the radioactivity remaining bound in the presence of 1 μM unlabeled SRIF-14.”

[6] = molecular target: T7, cloned human somatostatin receptor 4 (human, UniProt P31391 1-388); assay: 125I-Tyr11-SRIF displacement, cloned human SSTR-R4
T7 construct: whole, on cells; Tested as cell membrane preparations; also called SSTR-4; SSTR-R4
T7 sequence (P31391 whole entry): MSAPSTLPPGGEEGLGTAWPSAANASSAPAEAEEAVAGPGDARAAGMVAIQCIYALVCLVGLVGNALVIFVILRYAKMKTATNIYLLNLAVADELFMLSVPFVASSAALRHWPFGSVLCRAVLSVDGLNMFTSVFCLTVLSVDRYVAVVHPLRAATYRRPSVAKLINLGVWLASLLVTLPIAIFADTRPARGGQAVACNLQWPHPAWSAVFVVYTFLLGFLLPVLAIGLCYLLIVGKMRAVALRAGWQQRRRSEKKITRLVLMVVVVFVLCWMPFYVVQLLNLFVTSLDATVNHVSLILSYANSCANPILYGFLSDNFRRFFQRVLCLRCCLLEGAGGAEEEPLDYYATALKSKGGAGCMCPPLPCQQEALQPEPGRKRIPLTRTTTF

[7] = molecular target: T4, cloned human somatostatin receptor 3; assay: 125I-Tyr11-SRIF displacement, membranes, cloned human SST-R3
From the text: as §1, with “counter.” for “counter. Non specific binding was defined as the radioactivity remaining bound in the presence of 1 μM unlabeled SRIF-14.”

[8] = Table 15, read-out: IC50 (nM) for SST-R 2
[9] = IV, from Sandostatin overview, Sandoz 1992
[10] = SC, from Sandostatin overview, Sandoz 1992

Molecule: C[C@@H](O)[C@@H]1NC(=O)[C@H](CCCCN)NC(=O)[C@@H](Cc2c[nH]c3ccccc23)NC(=O)[C@H](Cc2c[nH]c3ccccc23)NC(=O)[C@H](Cc2ccccc2)NC(=O)CN(C(=O)[C@H](N)Cc2ccccc2)CCSSCCN(CC(N)=O)C(=O)[C@H](Cc2ccccc2)NC1=O [PTR 3219, (D)Phe-Gly(S2)*-Phe-Trp-(D)Trp-Lys-Thr-Phe-Gly(S2)*-NH2]
IC50 (SSTR-2): 4 nM

inhibition at 1 µM (SSTR-3; SST-R3, 10^−6M, read-out: Percent inhibition of SRIF-14 binding): 87%
inhibition at 0.1 µM (SSTR-3; SST-R3, 10^−7M, read-out: Percent inhibition of SRIF-14 binding): 40%
inhibition at 0.01 µM (SSTR-3; SST-R3, 10^−8M, read-out: Percent inhibition of SRIF-14 binding): 12%
inhibition at 1 µM (SSTR-5; SST-R5, 10^−6M, read-out: Percent inhibition of SRIF-14 binding): 60%
inhibition at 0.1 µM (SSTR-5; SST-R5, 10^−7M, read-out: Percent inhibition of SRIF-14 binding): 10%
inhibition at 0.01 µM (SSTR-5; SST-R5, 10^−8M, read-out: Percent inhibition of SRIF-14 binding): 18%
remaining at 1 h (in vitro): 100%
remaining at 3 h (in vitro): 100%
remaining at 24 h (in vitro): 100%
Molecule: NCCCC[C@H]1NC(=O)[C@@H](Cc2c[nH]c3ccccc23)NC(=O)[C@H](Cc2ccccc2)NC(=O)[C@H](Cc2ccccc2)NC(=O)[C@H](Cc2ccccc2)NC(=O)CCN([C@@H](Cc2ccccc2)C(N)=O)C1=O [PTR 3171, Phe*-Phe-Phe-(D)Trp-(D)Lys-Phe(C2)-X] (FFF[dW][dK][Phe(Nα-CH2CH2CO)]-NH2; lactam N-6)

somatostatin receptor subtype selectivity [1]: selective for the type 1 receptor
Molecule: Phe(N2)-Tyr-(D)2Nal-Lys-Val-Gly(C2)-Thr-X ([N(2-aminoethyl)Phe]Y[d2Nal]KV[N(CH2CH2CO)Gly]T; lactam 1-6; not fully specified; printed as Phe(N2)-Tyr-(D)2Nal-Lys-Val-Gly(C2)-Thr-X) [PTR 3209]

IC50 (SSTR-3): 100 nM
IC50 (SSTR-2; [8]): 37 nM
Molecule: C[C@@H](O)[C@@H]1NC(=O)[C@H](CCCCN)NC(=O)[C@@H](Cc2c[nH]c3ccccc23)NC(=O)[C@H](Cc2c[nH]c3ccccc23)NC(=O)[C@H](Cc2ccccc2)NC(=O)CCSSCCN(CC(N)=O)C(=O)[C@H](Cc2ccccc2)NC1=O [PTR 3217, 3-Thiopropanoic-acid*-Phe-Trp-(D)Trp-Lys-Thr-Phe-Gly(S2)*-NH2]

Molecule: C[C@@H](O)[C@@H]1NC(=O)[C@H](CCCCN)NC(=O)[C@@H](Cc2c[nH]c3ccccc23)NC(=O)[C@H](Cc2ccccc2)NC(=O)[C@@H](NC(=O)[C@H](N)Cc2ccccc2)CSSC[C@@H](C(=O)N[C@H](CO)[C@@H](C)O)NC1=O [Octreotide]
Clearance [2, 9]: 17.6 mL/min/kg
T½β (min) circulating half life [2, 9]: 49 min
Vss (ml/kg) Volume of distribution [2, 9]: 602 mL/kg
circulation half-life ([2]; Octreotide): 40 min
Clearance [2, 10]: 17.1 mL/min/kg
F (%) Bioavailability [2, 10]: 103%
T½β (min) circulating half life [2, 10]: 40 min
remaining at 1 h (in vitro): 100%
remaining at 3 h (in vitro): 100%
remaining at 24 h (in vitro): 100%

Molecule: Phe(N2)-Tyr-(D)Trp-Lys-Val-Gly(C2)-2Nal-X ([N(2-aminoethyl)Phe]Y[dW]KV[N(CH2CH2CO)Gly][2Nal]; lactam 1-6; not fully specified) [PTR 3183]
somatostatin receptor subtype selectivity [1]: selective for the type 5 somatostatin receptor

IC50 (SSTR-2; [8]): 4 nM
IC50 (SSTR-5): 12 nM
Molecule: C[C@@H](O)[C@@H]1NC(=O)[C@H](CCCCN)NC(=O)[C@@H](Cc2c[nH]c3ccccc23)NC(=O)[C@H](Cc2c[nH]c3ccccc23)NC(=O)[C@H](Cc2ccccc2)NC(=O)CNCCSSCCN(CC(N)=O)C(=O)[C@H](Cc2ccccc2)NC1=O [PTR 3213, Gly(S2)*-Phe-Trp-(D)Trp-Lys-Thr-Phe-Gly(S2)*-NH2]

IC50 (SSTR-3): 12 to 37 nM
IC50 (SSTR-2; [8]): 37 nM
Molecule: C[C@@H](O)[C@@H]1NC(=O)[C@H](CCCCN)NC(=O)[C@@H](Cc2c[nH]c3ccccc23)NC(=O)[C@H](Cc2c[nH]c3ccccc23)NC(=O)[C@H](Cc2ccccc2)NC(=O)CSSCCN(CC(N)=O)C(=O)[C@H](Cc2ccccc2)NC1=O [PTR 3211, Mercapto-acetic-acid(*)-Phe-Trp-(D)Trp-Lys-Thr-Phe-Gly(S2)*-NH2]

Molecule: Phe(N2)-Tyr-(D)Trp-Lys-Val-Val-Gly(C2)-X ([N(2-aminoethyl)Phe]Y[dW]KVV[N(CH2CH2CO)Gly]; lactam 1-7; not fully specified) [PTR 3185]
somatostatin receptor subtype selectivity [1]: selective for the type 5 somatostatin receptor

IC50 (SSTR-2; [8]): 4 nM
IC50 (SSTR-5): 1 nM
Molecule: C[C@@H](O)[C@@H]1NC(=O)[C@H](CCCCN)NC(=O)[C@@H](Cc2c[nH]c3ccccc23)NC(=O)[C@H](Cc2c[nH]c3ccccc23)NC(=O)[C@H](Cc2ccccc2)NC(=O)[C@@H](N)CSSCCN(CC(N)=O)C(=O)[C@H](Cc2ccccc2)NC1=O [PTR 3197, Cys*-Phe-Trp-(D)Trp-Lys-Thr-Phe-Gly(S2)*-NH2] (H-CFW[dW]KTF[N(2-mercaptoethyl)Gly]-NH2; disulfide 1-8; N-terminus assumed)

IC50 (SSTR-2; [8]): 1 to 12 nM
Molecule: C[C@@H](O)[C@@H]1NC(=O)[C@H](CCCCN)NC(=O)[C@@H](Cc2c[nH]c3ccccc23)NC(=O)[C@H](Cc2c[nH]c3ccccc23)NC(=O)[C@H](Cc2ccccc2)NC(=O)[C@@H](NC(=O)[C@H](N)Cc2ccccc2)CSSCCN(CC(N)=O)C(=O)[C@H](Cc2ccccc2)NC1=O [PTR 3207, (D)Phe-Cys*-Phe-Trp-(D)Trp-Lys-Thr-Phe-Gly(S2)*-NH2]

IC50 [3]: 10 nM
IC50 [4]: 100 nM
IC50 [5]: 10 nM
B1: PTR 3203 (peptide)
peptide: [N(2-aminoethyl)Phe]F[dW]KT[2Nal][N(CH2CH2CO)Gly]
modifications: lactam 1-7; not fully specified
notes: Backbone cyclized heptapeptide

IC50 [3]: 100 nM
IC50 [4]: 1 nM
IC50 [5]: 1 nM
percent inhibition of SRIF-14 binding at 10^-6 M [6]: 5%
percent inhibition of SRIF-14 binding at 10^-7M [6]: 5%
percent inhibition of SRIF-14 binding at 10^-8M [6]: 0%
percent inhibition of SRIF-14 binding at 10^-9 M [6]: 0%
percent inhibition of SRIF-14 binding at 10^-10 M [6]: 0%
percent inhibition of SRIF-14 binding at 10^-11 M [6]: 0%
B2: PTR 3173 (peptide)
peptide: XFWWKTFG
modifications: GABA at 1 (written X); (D)Trp at 4; Gly(C3) building unit at 8 bridged by an amide to the N terminus (GABA); C-terminal amide
notes: Backbone-to-end cyclized octapeptide

percent inhibition of SRIF-14 binding at 10^-6M [7]: 94%
percent inhibition of SRIF-14 binding at 10^-7M [7]: 65%
percent inhibition of SRIF-14 binding at 10^-8M [7]: 16%
B3: PTR 3113 (peptide)
peptide: [Phe(C1)]FF[dW]K[N(2-aminoethyl)Phe]
modifications: lactam 1-6; reading uncertain
notes: Backbone cyclized hexapeptide somatostatin analog

IC50 [4]: 1 nM
B4: PTR 3205 (peptide)
peptide: [Phe(C3)]CF[dW]KTC[Phe(N3)]-NH2
modifications: lactam 1-8; disulfide 2-7; reading uncertain
notes: Bicyclic analog

percent inhibition of SRIF-14 binding at 10^-6M [7]: 87%
percent inhibition of SRIF-14 binding at 10^-7M [7]: 40%
percent inhibition of SRIF-14 binding at 10^-8M [7]: 12%
B5: PTR 3171 (peptide)
peptide: FFF[dW][dK][Phe(C2)]
modifications: lactam N-6; reading uncertain
notes: Backbone-to-end cyclized hexapeptide

IC50 [3]: 10 nM
IC50 [4]: 100 nM
IC50 [5]: 1 nM
B6: PTR 3201 (peptide)
peptide: [N(2-aminoethyl)Phe]Y[dW]KS[2Nal][N(CH2CH2CO)Gly]
modifications: lactam 1-7; not fully specified
notes: as for B1

From US6930088B2, “Conformationally constrained backbone cyclized somatostatin analogs” (Peptor Ltd., priority 1998, dated 2005)
